In US10004701B2, “Methods and compositions for treating infection” (UNIVERSITY OF ROCHESTER, priority 2012, dated 2018):
Structures can show the parent of a compound that is named as a salt. Where two headings read alike, the source gives them in different places.

Key:
Assay in all cases: AK assay 384-well format, Prestwick library screening
[1] = tested on: E. faecium; type: cell-based, Enterococcus faecium; conditions: Enterococcus faecium, 3 h, 50 μM final drug concentration
[2] = tested on: S. aureus strain USA300-0114; type: cell-based, Staphylococcus aureus; conditions: Staphylococcus aureus, USA300, 3 h, 50 μM final drug concentration
[3] = tested on: K. pneumoniae; type: cell-based, Klebsiella pneumoniae; conditions: Klebsiella pneumoniae, 3 h, 50 μM final drug concentration
[4] = tested on: A. baumannii strain 98-37-09; type: cell-based, Acinetobacter baumannii; conditions: Acinetobacter baumannii, 983709, 3 h, 50 μM final drug concentration
[5] = tested on: P. aeruginosa; type: cell-based, Pseudomonas aeruginosa; conditions: Pseudomonas aeruginosa, 3 h, 50 μM final drug concentration
[6] = tested on: E. cloacae; type: cell-based, Enterobacter cloacae; conditions: Enterobacter cloacae, 3 h, 50 μM final drug concentration
[7] = tested on: E. coli; type: cell-based, Escherichia coli; conditions: Escherichia coli, 3 h, 50 μM final drug concentration
[8] = 384-well format, cutoff for positive-scoring molecules 3-fold increase, read-out: AK-based Prestwick Library Screening Results, E. faecium (increase in extracellular AK activity)
[9] = 384-well format, cutoff for positive-scoring molecules 3-fold increase, read-out: AK-based Prestwick Library Screening Results, S. aureus (increase in extracellular AK activity)
[10] = 384-well format, cutoff for positive-scoring molecules 3-fold increase, read-out: AK-based Prestwick Library Screening Results, K. pneumoniae (increase in extracellular AK activity)
[11] = 384-well format, cutoff for positive-scoring molecules 3-fold increase, read-out: AK-based Prestwick Library Screening Results, A. baumannii (increase in extracellular AK activity)
[12] = 384-well format, cutoff for positive-scoring molecules 3-fold increase, read-out: AK-based Prestwick Library Screening Results, P. aeruginosa (increase in extracellular AK activity)
[13] = 384-well format, cutoff for positive-scoring molecules 3-fold increase, read-out: AK-based Prestwick Library Screening Results, E. cloacae (increase in extracellular AK activity)
[14] = 384-well format, cutoff for positive-scoring molecules 3-fold increase, read-out: AK-based Prestwick Library Screening Results, E. coli (increase in extracellular AK activity)
[15] = planktonic E. faecium, 384-well, cutoff for positive-scoring molecules 3-fold increase, read-out: AK-based Prestwick Library Screening Results: E. faecium (increase in extracellular AK activity)
[16] = planktonic S. aureus, 384-well, cutoff for positive-scoring molecules 3-fold increase, read-out: AK-based Prestwick Library Screening Results: S. aureus (increase in extracellular AK activity)
[17] = planktonic K. pneumoniae, 384-well, cutoff for positive-scoring molecules 3-fold increase, read-out: AK-based Prestwick Library Screening Results: K. pneumoniae (increase in extracellular AK activity)
[18] = planktonic A. baumannii, 384-well, cutoff for positive-scoring molecules 3-fold increase, read-out: AK-based Prestwick Library Screening Results: A. baumannii (increase in extracellular AK activity)
[19] = planktonic P. aeruginosa, 384-well, cutoff for positive-scoring molecules 3-fold increase, read-out: AK-based Prestwick Library Screening Results: P. aeruginosa (increase in extracellular AK activity)
[20] = planktonic E. cloacae, 384-well, cutoff for positive-scoring molecules 3-fold increase, read-out: AK-based Prestwick Library Screening Results: E. cloacae (increase in extracellular AK activity)
[21] = planktonic E. faecium, positive cutoff 3-fold increase, read-out: AK-based Prestwick library screening result, E. faecium (fold increase in extracellular AK activity)
[22] = planktonic S. aureus, positive cutoff 3-fold increase, read-out: AK-based Prestwick library screening result, S. aureus (fold increase in extracellular AK activity)
[23] = planktonic K. pneumoniae, positive cutoff 3-fold increase, read-out: AK-based Prestwick library screening result, K. pneumoniae (fold increase in extracellular AK activity)
[24] = planktonic A. baumannii, positive cutoff 3-fold increase, read-out: AK-based Prestwick library screening result, A. baumannii (fold increase in extracellular AK activity)
[25] = planktonic P. aeruginosa, positive cutoff 3-fold increase, read-out: AK-based Prestwick library screening result, P. aeruginosa (fold increase in extracellular AK activity)
[26] = planktonic E. cloacae, positive cutoff 3-fold increase, read-out: AK-based Prestwick library screening result, E. cloacae (fold increase in extracellular AK activity)
[27] = planktonic E. coli, positive cutoff 3-fold increase, read-out: AK-based Prestwick library screening result, E. coli (fold increase in extracellular AK activity)
[28] = planktonic, cutoff for positive 3-fold increase, read-out: AK-based Prestwick Library Screening Results, E. faecium (fold increase in extracellular AK activity)
[29] = planktonic, cutoff for positive 3-fold increase, read-out: AK-based Prestwick Library Screening Results, S. aureus (fold increase in extracellular AK activity)
[30] = planktonic, cutoff for positive 3-fold increase, read-out: AK-based Prestwick Library Screening Results, K. pneumoniae (fold increase in extracellular AK activity)
[31] = planktonic, cutoff for positive 3-fold increase, read-out: AK-based Prestwick Library Screening Results, A. baumannii (fold increase in extracellular AK activity)
[32] = planktonic, cutoff for positive 3-fold increase, read-out: AK-based Prestwick Library Screening Results, P. aeruginosa (fold increase in extracellular AK activity)
[33] = planktonic, cutoff for positive 3-fold increase, read-out: AK-based Prestwick Library Screening Results, E. cloacae (fold increase in extracellular AK activity)
[34] = planktonic, cutoff for positive 3-fold increase, read-out: AK-based Prestwick Library Screening Results, E. coli (fold increase in extracellular AK activity)
[35] = planktonic E. coli, 384-well, cutoff for positive-scoring molecules 3-fold increase, read-out: AK-based Prestwick Library Screening Results: E. coli (increase in extracellular AK activity)
[36] = planktonic E. faecium, cutoff for positive-scoring molecules 3-fold increase, read-out: AK-based Prestwick Library Screening Results, E. faecium (increase in extracellular AK activity)
[37] = planktonic S. aureus, cutoff for positive-scoring molecules 3-fold increase, read-out: AK-based Prestwick Library Screening Results, S. aureus (increase in extracellular AK activity)
[38] = planktonic K. pneumoniae, cutoff for positive-scoring molecules 3-fold increase, read-out: AK-based Prestwick Library Screening Results, K. pneumoniae (increase in extracellular AK activity)
[39] = planktonic A. baumannii, cutoff for positive-scoring molecules 3-fold increase, read-out: AK-based Prestwick Library Screening Results, A. baumannii (increase in extracellular AK activity)
[40] = planktonic P. aeruginosa, cutoff for positive-scoring molecules 3-fold increase, read-out: AK-based Prestwick Library Screening Results, P. aeruginosa (increase in extracellular AK activity)
[41] = planktonic E. cloacae, cutoff for positive-scoring molecules 3-fold increase, read-out: AK-based Prestwick Library Screening Results, E. cloacae (increase in extracellular AK activity)
[42] = planktonic E. coli, cutoff for positive-scoring molecules 3-fold increase, read-out: AK-based Prestwick Library Screening Results, E. coli (increase in extracellular AK activity)

COc1ccc(OC)c(C(O)CNC(=O)CN)c1 (stereo not drawn) [Midodrine hydrochloride]
fold induction at 50 µM [1, 8]: 1
fold induction at 50 µM [2, 9]: 0.9
fold induction at 50 µM [3, 10]: 0.7
fold induction at 50 µM [4, 11]: 0.9
fold induction at 50 µM [5, 12]: 0.9
fold induction at 50 µM [6, 13]: 1
fold induction at 50 µM [7, 14]: 1

CC#C[C@]1(O)CC[C@H]2[C@@H]3CCC4=CC(=O)CCC4=C3[C@@H](c3ccc(N(C)C)cc3)C[C@@]21C [Mifepristone]
fold induction at 50 µM [1, 15]: 1.1
fold induction at 50 µM [2, 16]: 0.7
fold induction at 50 µM [3, 17]: 0.9
fold induction at 50 µM [4, 18]: 1.1
fold induction at 50 µM [5, 19]: 1
fold induction at 50 µM [6, 20]: 1.4
fold induction at 50 µM ([7]; planktonic E. coli, 384-well, […], read-out: AK-based Prestwick Library Screening Results: E. coli (increase in extracellular AK activity)): 1.3

Cc1[nH]c(=O)c(C#N)cc1-c1ccncc1 [Milrinone]
fold induction at 50 µM [1, 21]: 0.9
fold induction at 50 µM [2, 22]: 0.7
fold induction at 50 µM [3, 23]: 0.8
fold induction at 50 µM [4, 24]: 0.8
fold induction at 50 µM [5, 25]: 0.9
fold induction at 50 µM [6, 26]: 0.9
fold induction at 50 µM [7, 27]: 0.8

NC(Cn1ccc(=O)c(O)c1)C(=O)O (stereo not drawn) [Mimosine]
fold induction at 50 µM [1, 28]: 1
fold induction at 50 µM [2, 29]: 1.4
fold induction at 50 µM [3, 30]: 0.9
fold induction at 50 µM [4, 31]: 0.9
fold induction at 50 µM [5, 32]: 1.1
fold induction at 50 µM [6, 33]: 1.5
fold induction at 50 µM [7, 34]: 1

Cc1cc(-c2ccccc2)nnc1NCCN1CCOCC1 [Minaprine dihydrochloride]
fold induction at 50 µM [1, 15]: 0.8
fold induction at 50 µM [2, 16]: 1
fold induction at 50 µM [3, 17]: 0.9
fold induction at 50 µM [4, 18]: 1.3
fold induction at 50 µM [5, 19]: 1.1
fold induction at 50 µM [6, 20]: 1.3
fold induction at 50 µM [7, 35]: 1.3

CN(C)c1ccc(O)c2c1C[C@H]1C[C@H]3[C@H](N(C)C)C(O)=C(C(N)=O)C(=O)[C@@]3(O)C(O)=C1C2=O [Minocycline hydrochloride]
fold induction at 50 µM [1, 15]: 1.1
fold induction at 50 µM [2, 16]: 6.9
fold induction at 50 µM [3, 17]: 0.6
fold induction at 50 µM [4, 18]: 3.9
fold induction at 50 µM [5, 19]: 0.7
fold induction at 50 µM [6, 20]: 0.9
fold induction at 50 µM [7, 35]: 2.3

Nc1cc(N2CCCCC2)nc(N)[n+]1[O-] [Minoxidil]
fold induction at 50 µM [1, 8]: 1
fold induction at 50 µM [2, 9]: 0.7
fold induction at 50 µM [3, 10]: 0.6
fold induction at 50 µM [4, 11]: 0.8
fold induction at 50 µM [5, 12]: 0.6
fold induction at 50 µM [6, 13]: 0.7
fold induction at 50 µM [7, 14]: 0.6

O=C1c2c(O)ccc(O)c2C(=O)c2c(NCCNCCO)ccc(NCCNCCO)c21 [Mitoxantrone dihydrochloride]
fold induction at 50 µM [1, 28]: 0.8
fold induction at 50 µM [2, 29]: 0.7
fold induction at 50 µM [3, 30]: 1
fold induction at 50 µM [4, 31]: 1.5
fold induction at 50 µM [5, 32]: 0.9
fold induction at 50 µM [6, 33]: 1.2
fold induction at 50 µM ([7]; planktonic, […], read-out: AK-based Prestwick Library Screening Results, E. coli (fold increase in extracellular AK activity)): 1.5

O=C(NCCN1CCOCC1)c1ccc(Cl)cc1 [Moclobemide]
fold induction at 50 µM [1, 36]: 0.9
fold induction at 50 µM [2, 37]: 0.6
fold induction at 50 µM [3, 38]: 0.6
fold induction at 50 µM [4, 39]: 0.7
fold induction at 50 µM [5, 40]: 0.8
fold induction at 50 µM [6, 41]: 1.2
fold induction at 50 µM [7, 42]: 0.9

CCc1c(C)[nH]c2c1C(=O)C(CN1CCOCC1)CC2 (stereo not drawn) [Molindone hydrochloride]
fold induction at 50 µM [1, 21]: 1
fold induction at 50 µM [2, 22]: 1.1
fold induction at 50 µM [3, 23]: 1
fold induction at 50 µM [4, 24]: 1.1
fold induction at 50 µM [5, 25]: 0.9
fold induction at 50 µM [6, 26]: 1.7
fold induction at 50 µM [7, 27]: 1.1

CCOC(=O)[N-]c1cn(N2CCOCC2)n[o+]1 [Molsidomine]
fold induction at 50 µM [1, 28]: 0.9
fold induction at 50 µM [2, 29]: 0.9
fold induction at 50 µM [3, 30]: 1
fold induction at 50 µM [4, 31]: 1.2
fold induction at 50 µM [5, 32]: 1.1
fold induction at 50 µM [6, 33]: 1.5
fold induction at 50 µM [7, 34]: 1.4

C[C@@H]1C[C@H]2[C@@H]3CCC4=CC(=O)C=C[C@]4(C)[C@@]3(Cl)[C@@H](O)C[C@]2(C)[C@@]1(OC(=O)c1ccco1)C(=O)CCl [Mometasone furoate]
fold induction at 50 µM [1, 36]: 1
fold induction at 50 µM [2, 37]: 0.4
fold induction at 50 µM [3, 38]: 0.7
fold induction at 50 µM [4, 39]: 0.9
fold induction at 50 µM [5, 40]: 0.6
fold induction at 50 µM [6, 41]: 0.9
fold induction at 50 µM [7, 42]: 0.9
